# Test results from patent US4683291A, “Platelet binding inhibitors” (Scripps Clinic and Research Foundation, priority 1985, dated 1987).
# pIC50: −log10 of the molar value. Non-standard residues stand in square brackets, D forms with d. Residues, ends and D or L forms follow the SMILES beside them. No end group written: not given here.
# Target: T1, platelet receptor, the GPIIb/IIIa complex (Homo sapiens, UniProt P05106+P08514)
# T1 construct: Platelets were isolated from normal platelet-rich plasma and washed by the albumin density gradient technique; endogenous in cells; host or cells: washed platelets from normal platelet-rich plasma, thrombin-stimulated
# Experiment: Inhibition of 125I-fibrinogen binding to thrombin-stimulated washed platelets
# Conditions: fibrinogen-platelet binding; read-out: IC50
# Method: Peptides were stored in the lyophilized state and dissolved in distilled water immediately before use. One-tenth volume of 10x modified Tyrode buffer was added before mixing with the platelet suspension. Platelets were isolated from normal platelet-rich plasma and washed by the albumin density gradient technique. Fibrinogen was purified following precipitation with glycine or polyethylene glycol 1000, and radiolabeled with ^125 I using Iodogen (Pierce). […] In each experimental mixture, platelets in modified Tyrode buffer were stimulated with human alpha-thrombin at 22°-25° C. for 10 minutes (3.125×10^11 platelets/L and 0.25 NIHU/ml of thrombin). Hirudin (Sigma) was then added at a 25-fold excess (V/V) for 5 minutes before the addition of ^125 I-fibrinogen and the peptide was then tested. After these additions, the final platelet count in the mixture was 1×10^11 /L, and fibrinogen was 0.176 micromolar. Separation of bound from free ligand was achieved by centrifuging 50 microliters of the mixture through 200 microliters of 20% sucrose at 12,000 g for 4 minutes. The platelet pellet was separated from the rest of the mixture, and the platelet-bound radioactivity was then determined. Non-specific binding was measured in mixtures containing a 75-fold excess of unlabeled fibrinogen. […] Each peptide was tested at six different concentrations, and the IC50 was derived from a plot of residual fibrinogen binding versus log of peptide concentration.
row,Compound,pIC50
1,KRKRKRKRRGDV [Lys--Arg--Lys--Arg--Lys--Arg--Lys--Arg--Arg--Gly--Asp--Val],6.40

# Same assay, conditions: published peptides; read-out: IC50
row,Compound,pIC50
1,HHLGGAKQAGDV [reference compound],4.08 to 4.32

# Same assay, conditions: read-out: Typical IC50 (micromolar) IC50
row,Compound,pIC50
1,CC(C)[C@H](NC(=O)[C@H](CC(=O)O)NC(=O)CNC(=O)[C@H](CCCNC(=N)N)NC(=O)[C@H](CCC(N)=O)NC(=O)[C@H](CCCCN)NC(=O)[C@H](CCCNC(=N)N)NC(=O)[C@H](CCCCN)NC(=O)[C@H](CCCNC(=N)N)NC(=O)[C@@H](C)NC(=O)[C@H](Cc1c[nH]cn1)NC(=O)[C@@H](N)Cc1c[nH]cn1)C(=O)O [His--His--D-Ala--Arg--Lys--Arg--Lys--Gln--Arg--Gly--Asp--Val] (H-HH[dA]RKRKQRGDV-OH),5.66
2,CC(C)[C@H](NC(=O)[C@H](CC(=O)O)NC(=O)CNC(=O)[C@H](CCCNC(=N)N)NC(=O)[C@H](CCC(N)=O)NC(=O)[C@H](CCCCN)NC(=O)[C@H](CCCNC(=N)N)NC(=O)CNC(=O)CNC(=O)[C@@H](C)NC(=O)[C@H](Cc1c[nH]cn1)NC(=O)[C@@H](N)Cc1c[nH]cn1)C(=O)O [His--His--D-Ala--Gly--Gly--Arg--Lys--Gln--Arg--Gly--Asp--Val] (H-HH[dA]GGRKQRGDV-OH),5.55
3,HHKKKKKKRGDV [His--His--Lys--Lys--Lys--Lys--Lys--Lys--Arg--Gly--Asp--Val],5.80
4,HHKRKRKQRGDS [His--His--Lys--Arg--Lys--Arg--Lys--Gln--Arg--Gly--Asp--Ser],5.21
5,HHKRKRKQRGDV [His--His--Lys--Arg--Lys--Arg--Lys--Gln--Arg--Gly--Asp--Val],5.48
6,HHKRKRKRRGDS [His--His--Lys--Arg--Lys--Arg--Lys--Arg--Arg--Gly--Asp--Ser],5.51
7,HHLGGAKQRGDV [His--His--Leu--Gly--Gly--Ala--Lys--Gln--Arg--Gly--Asp--Val],4.84
8,HHLGGKKQRGDV [His--His--Leu--Gly--Gly--Lys--Lys--Gln--Arg--Gly--Asp--Val],4.88
9,HHLGGRKQRGDV [His--His--Leu--Gly--Gly--Arg--Lys--Gln--Arg--Gly--Asp--Val],5.20
10,HHLGRRKQRGDV [His--His--Leu--Gly--Arg--Arg--Lys--Gln--Arg--Gly--Asp--Val],5.27
11,HHLRGKKQRGDV [His--His--Leu--Arg--Gly--Lys--Lys--Gln--Arg--Gly--Asp--Val],4.95
12,HHLRGRKQRGDV [His--His--Leu--Arg-- Gly--Arg--Lys--Gln--Arg--Gly--Asp--Val],5.21
13,HHLRKRKQRGDV [His--His--Leu--Arg--Lys--Arg--Lys--Gln--Arg--Gly--Asp--Val],5.36
14,HHRRRRRRRGDV [His--His--Arg--Arg--Arg--Arg--Arg--Arg--Arg--Gly--Asp--Val],5.89
15,KKKKKKKKRGDV [Lys--Lys--Lys--Lys--Lys--Lys--Lys--Lys--Arg--Gly--Asp--Val],5.39
16,RRRRRRRRRGDV [Arg--Arg--Arg--Arg--Arg--Arg--Arg--Arg--Arg--Gly--Asp--Val],6.70

# Target: T1, platelet receptor, the GPIIb/IIIa complex
# Experiment: not given
# Conditions: increasing fibrinogen concentrations; earlier findings; cited from earlier work
row,Compound,inhibitory effect on increasing the fibrinogen concentration
1,Gly-Pro-Arg-Pro (GPRP; printed: Gly-Pro-Arg-Pro),increase with increasing fibrinogen concentrations
